Assay results from patent publication US10648035B2, “Methods and compositions for diagnosing and treating gastric cancer” (THE JOHNS HOPKINS UNIVERSITY, priority 2012, dated 2020).

How the values were obtained:
[1] = system: claudin-11 mRNA expression in AGS gastric cancer cells; experiment: Claudin-11 mRNA re-expression in AGS cells after demethylating treatment (qRT-PCR); type: cell-based; parameters: claudin-11 mRNA expression, ratio of treated vs. untreated cells: dose or concentration left out as unconfirmed
Description: FIG. 23. Claudin-11 mRNA re-expression in AGS gastric cancer cells after treatment with 5-Aza-dC. AGS is a gastric cancer cell line manifesting hypermethylation of the claudin-11 promoter in conjunction with absent claudin-11 mRNA expression (FIG. 17). Total RNAs from AGS cells before and after 5-aza-2-deoxycytidine treatment were subjected to quantitative real-time RT-PCR analysis. The Y-axis represents the expression ratio of 5-aza-dC-treated vs. untreated cells. […] This restoration of claudin-11 expression after 5-Aza-dC treatment supports our hypothesis that claudin-11 is silenced by promoter hypermethylation in GC cells.
[…] Total RNAs extracted before vs. after treatment were subjected to qRT-PCR for CLDN11.

Barx1 expression in AGS = experiment: Barx1 mRNA re-expression in AGS after 5-Aza-dC treatment; type: cell-based; settings: AGS cells after treatment

Nc1ncn([C@H]2C[C@H](O)[C@@H](CO)O2)c(=O)n1 [5-Aza-dC, 5-aza-2-deoxycytidine]
CLDN11 mRNA re-expression ([1]; 1 μM, varying time intervals): CLDN11 mRNA became more re-expressed
claudin-11 mRNA expression, ratio of treated vs. untreated cells ([1]; first 72 hrs. of treatment): time-dependent increase in claudin-11 mRNA expression
Barx1 mRNA re-expression (Barx1 expression in AGS): restoration of Barx1 expression
Barx1 mRNA re-expression (Barx1 expression in AGS; listed as 5-AzaC): BARX mRNA re-expression
